Source: patent US6534523B1, “Hepatitis C inhibitor tri-peptides” (Boehringer Ingelheim (Canada) Ltd., priority 1998, dated 2003)
Where two headings read alike, the source gives them in different places.

Columns and labels:
Type in all cases: biochemical, HCV genotype 1b
[1] = target: HCV NS3 protease (UniProt P26663); conditions: read-out: activity / potency (HCV NS3 protease inhibition); text comparison of P1 configuration
Procedure: (§1) Recombinant HCV NS3 Protease/NS4A Cofactor Peptide Radiometric Assay
(§2) The enzyme was cloned, expressed and prepared according to the protocol described in Example 36. The enzyme was stored at −80° C., thawed on ice and diluted just prior to use in the assay buffer containing the NS4A cofactor peptide.
(§3) The substrate used for the NS3 protease/NS4A cofactor peptide radiometric assay, DDIVPC-SMSYTW, is cleaved between the cysteine and the serine residues by the enzyme. The sequence DDIVPC-SMSYTW corresponds to the NS5A/NS5B natural cleavage site in which the cysteine residue in P2 has been substituted for a proline. […] (molar ratio enzyme:cofactor 1:100) in the absence or presence of inhibitors. The separation of substrate from products is performed by adding avidin-coated agarose beads to the assay mixture followed by filtration. […]
(§4) The NS2-NS5B-3′ non coding region was cloned by RT-PCR into the pCR®3 vector (Invitrogen) using RNA extracted from the serum of an HCV genotype 1b infected individual (provided by Dr. Bernard Willems, Hôpital St-Luc, Montréal, Québec, Canada). […] Fluorescence of the N-terminal product was monitored on a Perkin-Elmer LS-50B fluorometer equipped with a 96-well plate reader (excitation wavelength: 325 nm; emission wavelength: 423 nm). […]

[2] = target: HCV NS3 protease (UniProt P26663); parameters: rows headed: difference in potency between (1R,2S) compound and its (1S,2S) isomer; other: 801 vs. corresponding (1S,2S) isomer; conditions: 801 vs. corresponding (1S,2S) isomer
Procedure: as §1, §2, §3, §4

[3] = target: HCV NS3 protease (UniProt P26663); parameters: rows headed: IC50 (μM); IC50 (μM)

HCV NS3 protease, sequence (P26663 1027-1206, other chains not shown): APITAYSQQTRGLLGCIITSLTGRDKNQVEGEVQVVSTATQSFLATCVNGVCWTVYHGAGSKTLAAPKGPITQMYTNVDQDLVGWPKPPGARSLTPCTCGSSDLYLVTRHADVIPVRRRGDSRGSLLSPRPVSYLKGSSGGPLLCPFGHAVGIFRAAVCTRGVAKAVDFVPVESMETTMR

| SMILES | IC50 [1] | difference in potency between (1R,2S) compound and its (1S,2S) isomer [2] | IC50 ([3]; Table 8) | IC50 ([3]; Table 9) |
| --- | --- | --- | --- | --- |
| C=CC1CC1(NC(=O)C1CC(Oc2cc(-c3ccccc3)nc3cc(OC)ccc23)CN1C(=O)C(NC(=O)NC(C)(C)C)C(C)(C)C)C(=O)O (centres unmarked) [compound 801] | 6 nM | over 1500 fold | 6 nM | – |
| C=CC1CC1(NC(=O)C1CC(Oc2cc(-c3ccccc3)nc3cc(OC)ccc23)CN1C(=O)C(NC(=O)OC(C)(C)C)C(C)(C)C)C(=O)O (centres unmarked) [compound 901] | 25 nM | – | – | 25 nM |
